Results reported in patent publication US20260151516A1, “NEW PET TRACER FOR IMAGING OF THE FUNCTIONAL HEPATIC RESERVE” (Medizinische Universität Innsbruck, priority 2022, published 2026).
Values joined by “and” are separate entries in the source; they are usually repeats but may differ in a detail not shown here. Equal values may be shown once.

How the values were obtained:
[1] = Biodistribution studies incl. blocking experiments; format: in vivo; details: healthy BALB/c mice
Experimental: For biodistribution studies 6 week old female BALB/c mice (n=3) were injected with 0.1 nmol (100 μL, approx. 1 MBq) of labelled compound via the lateral tail vein and sacrificed after 10, 30, or 60 min by cervical dislocation. The mice were dissected, blood and organs (spleen, pancreas, stomach, intestine, liver, kidney, heart, lung, muscle, and bone) were weighed, and their activity measured in a γ-counter. For blocking experiments, mice were co-injected with 100 μL of a 277 mM Galactose/PBS solution. In case of [^68Ga]Ga-TRAP-GalNAc a 277 mM N-Acetylgalactose solution was used.

[2] = Ligand stability in PBS (radio-HPLC); format: physicochemical; details: 37° C., over the time course of 2 h
Experimental: (§1) Ligand stability in human blood serum (n=2) and PBS (n=1) was determined for different time points (2 min, 30 min, 60 min, 120 min). Therefore, approx. 5 MBq of radioligand was added to 1 mL of fresh human serum or PBS and incubated at 37° C. At each given time point 100 μL of the mixture were transferred to a 1.5 mL Eppendorf tube containing 100 μL of acetonitrile. The vial was vortexed and centrifuged for 2 min at 14,000 rpm before 100 μL of the supernatant were diluted with 200 μL of water and injected into analytical radio-HPLC. The PBS solution was directly injected into the radio-HPLC. Ligand stability was determined by integrating the areas of the signals in the radio chromatogram in relation to the signal of the intact ligand.

[3] = Partition coefficient (log D), n-Octanol/PBS; format: physicochemical
Experimental: The vials were vortexed for 5 min at 1,500 rpm and then centrifuged for 5 min at 20,000 rcf (Eppendorf Centrifuge 5424).

[4] = Ligand stability in human blood serum (radio-HPLC); format: in vitro ADME; details: for Serum stability (% of intact ligand): 37° C.
Experimental: as §1

human serum = assay: Protein binding in fresh human serum (Sephadex MicroSpin G-50 columns); format: in vitro ADME; details: 37° C.
Experimental: Protein binding was determined for different time points (2 min, 30 min, 60 min, 120 min) in triplicates using Sephadex MicroSpin G-50 columns (GE-Healthcare, Chicago, Illinois, USA). The columns were spun initially at 20,000 rcf for 1 min to remove the storage buffer. Then approx. 5 MBq of radioligand was added to 1 mL of fresh human serum and incubated at 37° C. At each given timepoint 25 μL of the mixture was loaded on to the column, which was then spun at 20,000 rcf for 1 min. The activity content on the column (free radioligand) and in the filtrate (protein bound fraction) was quantified in a γ-counter.

[5] = 30 min p.i., blocking with 277 mM galactose

O=C(CCP(=O)([O-])CN1CCN(CP(=O)([O-])CCC(=O)NCc2cn(CCOCCOCCO[C@@H]3O[C@H](CO)[C@H](O)[C@H](O)[C@H]3O)nn2)CCN(CP(=O)([O-])CCC(=O)NCc2cn(CCOCCOCCO[C@@H]3O[C@H](CO)[C@H](O)[C@H](O)[C@H]3O)nn2)CC1)NCc1cn(CCOCCOCCO[C@@H]2O[C@H](CO)[C@H](O)[C@H](O)[C@H]2O)nn1.[68Ga+3] [[^68Ga]Ga-TRAP-Galactan]
Biodistribution Blood ([1]; 10 min p.i.): 3.66 ± 0.2 % ID/g | Biodistribution Femur ([1]; 10 min p.i.): 0.85 ± 0.33 % ID/g | Biodistribution Heart ([1]; 10 min p.i.): 1.28 ± 0.06 % ID/g | Biodistribution Intestine ([1]; 10 min p.i.): 1.24 ± 0.05 % ID/g | Biodistribution Kidneys ([1]; 10 min p.i.): 7.4±2.1 % ID/g and 7.39 ± 2.1 % ID/g | Biodistribution Liver ([1]; 10 min p.i.): 24.6±1.6 % ID/g | Biodistribution Lung ([1]; 10 min p.i.): 2.31 ± 0.17 % ID/g | Biodistribution Muscle ([1]; 10 min p.i.): 0.91 ± 0.08 % ID/g | Biodistribution Pancreas ([1]; 10 min p.i.): 0.87 ± 0.01 % ID/g | Biodistribution Spleen ([1]; 10 min p.i.): 0.84 ± 0.08 % ID/g | Biodistribution Stomach ([1]; 10 min p.i.): 1.22 ± 0.20 % ID/g | Biodistribution Blood ([1]; 30 min p.i.): 1.6 ± 0.11 % ID/g | Biodistribution Femur ([1]; 30 min p.i.): 0.32 ± 0.05 % ID/g | Biodistribution Heart ([1]; 30 min p.i.): 0.65 ± 0.08 % ID/g | Biodistribution Intestine ([1]; 30 min p.i.): 2.18 ± 0.10 % ID/g | Biodistribution Kidneys ([1]; 30 min p.i.): 4.33 ± 0.35 % ID/g | Biodistribution Liver ([1]; 30 min p.i.): 29.7±1.7 % ID/g | Biodistribution Lung ([1]; 30 min p.i.): 1.09 ± 0.03 % ID/g | Biodistribution Muscle ([1]; 30 min p.i.): 0.37 ± 0.02 % ID/g | Biodistribution Pancreas ([1]; 30 min p.i.): 0.53 ± 0.01 % ID/g | Biodistribution Spleen ([1]; 30 min p.i.): 0.42 ± 0.07 % ID/g | Biodistribution Stomach ([1]; 30 min p.i.): 1.00 ± 0.27 % ID/g | Biodistribution Blood [1, 5]: 1.35 ± 0.52 % ID/g | Biodistribution Femur [1, 5]: 0.27 ± 0.09 % ID/g | Biodistribution Heart [1, 5]: 0.44 ± 0.09 % ID/g | Biodistribution Intestine [1, 5]: 1.02 ± 0.18 % ID/g | Biodistribution Kidneys [1, 5]: 3.70 ± 0.53 % ID/g | Biodistribution Liver [1, 5]: 10.6 ± 1.4 % ID/g | Biodistribution Lung [1, 5]: 0.86 ± 0.14 % ID/g | Biodistribution Muscle [1, 5]: 0.30 ± 0.04 % ID/g | Biodistribution Pancreas [1, 5]: 0.37 ± 0.04 % ID/g | Biodistribution Spleen [1, 5]: 0.29 ± 0.03 % ID/g | Biodistribution Stomach [1, 5]: 0.49 ± 0.07 % ID/g | Biodistribution Blood ([1]; 60 min p.i.): 0.3±0.09 % ID/g | Biodistribution Femur ([1]; 60 min p.i.): 0.13 ± 0.03 % ID/g | Biodistribution Heart ([1]; 60 min p.i.): 0.16 ± 0.02 % ID/g | Biodistribution Intestine ([1]; 60 min p.i.): 2.8±0.2 % ID/g and 2.80 ± 0.24 % ID/g | Biodistribution Kidneys ([1]; 60 min p.i.): 1.72 ± 0.17 % ID/g | Biodistribution Liver ([1]; 60 min p.i.): 25.0 ± 1.1 % ID/g | Biodistribution Lung ([1]; 60 min p.i.): 0.32 ± 0.05 % ID/g | Biodistribution Muscle ([1]; 60 min p.i.): 0.15 ± 0.03 % ID/g | Biodistribution Pancreas ([1]; 60 min p.i.): 0.16 ± 0.02 % ID/g | Biodistribution Spleen ([1]; 60 min p.i.): 0.17 ± 0.07 % ID/g | Biodistribution Stomach ([1]; 60 min p.i.): 0.31 ± 0.21 % ID/g | Stability in PBS (% intact tracer) [2]: > 99% | logD [3]: −4.26±0.08 | Serum stability (% of intact ligand) ([4]; 2 min): 97.7 ± 0.3% | Serum stability (% of intact ligand) ([4]; 30 min): 97.6 ± 0.2% | Serum stability (% of intact ligand) ([4]; 60 min): 97.6 ± 0.1% | Serum stability (% of intact ligand) ([4]; 120 min): 97.9 ± 0.1% | Stability in human blood serum (% intact tracer) ([4]; over the time course of 2 h): > 98% | Protein binding (%) (human serum; 2 min): 8.2±3.4% | Protein binding (%) (human serum; 30 min): 6.4 ± 1.8% | Protein binding (%) (human serum; 60 min): 12.0 ± 3.1% | Protein binding (%) (human serum; 120 min): 11.6±2.2%

O=C(CCP(=O)([O-])CN1CCN(CP(=O)([O-])CCC(=O)NCc2cn(CCOCCOCCO[C@@H]3O[C@H](CO)[C@@H](O)[C@H](O)[C@H]3O)nn2)CCN(CP(=O)([O-])CCC(=O)NCc2cn(CCOCCOCCO[C@@H]3O[C@H](CO)[C@@H](O)[C@H](O)[C@H]3O)nn2)CC1)NCc1cn(CCOCCOCCO[C@@H]2O[C@H](CO)[C@@H](O)[C@H](O)[C@H]2O)nn1.[68Ga+3] [[^68Ga]Ga-TRAP-Gluco, reference compound]
Biodistribution Blood ([1]; 10 min p.i.): 4.53 ± 0.52 % ID/g | Biodistribution Femur ([1]; 10 min p.i.): 0.86 ± 0.10 % ID/g | Biodistribution Intestine ([1]; 10 min p.i.): 1.10 ± 0.12 % ID/g | Biodistribution Kidneys ([1]; 10 min p.i.): 10.20 ± 1.23 % ID/g | Biodistribution Liver ([1]; 10 min p.i.): 1.06 ± 0.07 % ID/g | Biodistribution Lung ([1]; 10 min p.i.): 2.84 ± 0.13 % ID/g | Biodistribution Muscle ([1]; 10 min p.i.): 0.99 ± 0.10 % ID/g | Biodistribution Pancreas ([1]; 10 min p.i.): 1.03 ± 0.08 % ID/g | Biodistribution Spleen ([1]; 10 min p.i.): 0.94 ± 0.03 % ID/g | Biodistribution Stomach ([1]; 10 min p.i.): 1.59 ± 0.44 % ID/g | Biodistribution Blood ([1]; 30 min p.i.): 1.40 ± 0.50 % ID/g | Biodistribution Femur ([1]; 30 min p.i.): 0.15 ± 0.14 % ID/g | Biodistribution Heart ([1]; 30 min p.i.): 1.07 ± 0.34 % ID/g | Biodistribution Intestine ([1]; 30 min p.i.): 0.57 ± 0.20 % ID/g | Biodistribution Kidneys ([1]; 30 min p.i.): 3.95 ± 1.12 % ID/g | Biodistribution Liver ([1]; 30 min p.i.): 0.51 ± 0.17 % ID/g | Biodistribution Lung ([1]; 30 min p.i.): 0.32 ± 0.10 % ID/g | Biodistribution Muscle ([1]; 30 min p.i.): 0.35 ± 0.12 % ID/g | Biodistribution Pancreas ([1]; 30 min p.i.): 0.47 ± 0.18 % ID/g | Biodistribution Spleen ([1]; 30 min p.i.): 0.41 ± 0.13 % ID/g | Biodistribution Stomach ([1]; 30 min p.i.): 0.61 ± 0.19 % ID/g | Biodistribution Blood ([1]; 60 min p.i.): 0.16 ± 0.06 % ID/g | Biodistribution Femur ([1]; 60 min p.i.): 0.08 ± 0.03 % ID/g | Biodistribution Heart ([1]; 60 min p.i.): 0.08 ± 0.02 % ID/g | Biodistribution Intestine ([1]; 60 min p.i.): 0.14 ± 0.05 % ID/g | Biodistribution Kidneys ([1]; 60 min p.i.): 1.87 ± 0.33 % ID/g | Biodistribution Liver ([1]; 60 min p.i.): 0.15 ± 0.02 % ID/g | Biodistribution Lung ([1]; 60 min p.i.): 0.31 ± 0.03 % ID/g | Biodistribution Muscle ([1]; 60 min p.i.): 0.05 ± 0.01 % ID/g | Biodistribution Pancreas ([1]; 60 min p.i.): 0.09 ± 0.03 % ID/g | Biodistribution Spleen ([1]; 60 min p.i.): 0.11 ± 0.01 % ID/g | Biodistribution Stomach ([1]; 60 min p.i.): 0.09 ± 0.03 % ID/g | logD [3]: −3.8 ± 0.08 | Protein binding (%) (human serum; 30 min): 3.3 ± 2.0%
